Measurements taken from PMC4263554, “A Comparative Study of Impedance versus Optical Label-Free Systems Relative to Labelled Assays in a Predominantly Gi Coupled GPCR (C5aR) Signalling” (Biosensors, 2012).
Where “and” joins values, the source holds several entries; their conditions need not be identical. Identical values can stand only once. Entries after “also recorded” stand apart in the source; their conditions may differ. Non-standard residues stand in square brackets, D forms with d. Residues, ends and D or L forms follow the SMILES beside them. d1Nal = N[C@H](Cc1cccc2ccccc12)C(=O)O; NMeF = CN[C@@H](Cc1ccccc1)C(=O)O; dCha = N[C@H](CC1CCCCC1)C(=O)O

Columns and labels:
[1] = target: T1, human C5aR (Homo sapiens, UniProt P21730); test: Alphascreen SureFire phospho-ERK1/2 assay in HMDM; assay type: cell-based; details: for EC50: 95% confidence intervals in brackets, read-out: ERK (EC50)
T1 construct: host or cells: CHO cells, stably transfected (G418 selection)
T1 sequence (P21730 1-350): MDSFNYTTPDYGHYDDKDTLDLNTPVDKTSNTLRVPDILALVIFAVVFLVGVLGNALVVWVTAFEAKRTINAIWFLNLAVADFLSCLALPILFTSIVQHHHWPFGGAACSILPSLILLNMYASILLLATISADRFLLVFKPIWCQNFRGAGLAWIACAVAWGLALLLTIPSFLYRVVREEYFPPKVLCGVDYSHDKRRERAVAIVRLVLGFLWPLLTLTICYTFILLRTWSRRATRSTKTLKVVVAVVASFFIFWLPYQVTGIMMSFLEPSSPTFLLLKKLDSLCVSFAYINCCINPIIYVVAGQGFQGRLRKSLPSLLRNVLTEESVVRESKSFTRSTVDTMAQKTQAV
Method: (§1) Alphascreen (Amplified Luminescent Proximity Homogeneous Assay Screen) SureFire phospho-ERK1/2 assay was performed according to manufacturers’ instructions (Perkin Elmer). AlphaScreen involves the use of two beads, denoted the donor and acceptor beads. When both beads are bound as a pair to an analyte and the donor bead is excited, a singlet oxygen is released which activates the acceptor bead. As there is a distance constraint here, only beads in close proximity can lead to further reactions that produce the detectable chemiluminescent signal. Briefly, HMDM and CHO-C5aR cells were serum starved and incubated in 96-well tissue culture plates (Nunc) overnight at 60,000 and 50,000 cells/well, respectively. Ligands were prepared in serum-free media at a final DMSO concentration of 1%. Ligands were incubated at room temperature for 10 and 15 min with HMDM and CHO-C5aR, respectively. Media was removed and cells were lysed with lysis buffer for 10 min on a shaker, 4 μL of lysate was transferred to a white 96-well half area plate (Perkin Elmer) and incubated in the presence of 7 μL of reaction mix. The plate was sealed with TopSeal-A, incubated for 2 h at 37 °C and measured on an Envision plate reader (Perkin Elmer). Each data point was performed in triplicate and repeated in at least three separate experiments.

[2] = target: T1, human C5aR; test: Alphascreen SureFire phospho-ERK1/2 assay in CHO-C5aR cells; assay type: cell-based; details: for EC50: 95% confidence intervals in brackets, read-out: ERK (EC50)
Method: as §1

[3] = target: T1, human C5aR; test: EPIC label-free optical system on CHO-C5aR cells; assay type: cell-based; details: peak response ~5 min, 95% confidence intervals in brackets
Method: (§2) HMDM were seeded, at 50,000 cells/well and CHO-C5aR and CHO-K1 at 7,500 cells/well, into fibronectin-coated cell-based EPIC® plates (Corning) and incubated overnight. Prior to ligand addition, media was exchanged for HBSS (Invitrogen Life Technologies): 20 mM HEPES (Sigma Aldrich) buffer, supplemented with 0.5% DMSO, and allowed to equilibrate at 26 °C for 1 h (HMDM) or 2 h (CHO-C5aR and CHO-K1) within the instrument. Agonists were prepared at a final DMSO concentration of 0.5% in HBSS:HEPES buffer. After ligand addition, measurements were taken continuously for 1–2 h at 26 °C. Peak amplitude response (Figure 2) was measured for data analysis using Corning EPIC® software.

[4] = target: T1, human C5aR; test: EPIC label-free optical system on HMDM; assay type: cell-based; details: peak response ~5 min, 95% confidence intervals in brackets
Method: as §2

[5] = system: C5aR; parameters: method as in PMID 7930622; details: neutrophils; cited from earlier work
[6] = target: T1, human C5aR; test: 125I-C5a competitive receptor binding (SPA) on CHO-C5aR membranes; details: for IC50: CHO-C5aR membranes, 25 pM 125I-C5a, 95% confidence intervals in brackets
Method: Membranes were prepared from CHO-C5aR cells by modification of a previously described method. Briefly, cells were washed with PBS, pH 7.4, and harvested into buffer (50 mM Tris-HCl, pH 7.4, 5 mM MgCl2, 1 mM CaCl2) before homogenising with a Polytron homogeniser for 3 min on setting 22. Cells were centrifuged at 150× g for 5 min at 4 °C. The supernatant was recovered and centrifuged at 22,000× g for 1 h at 4 °C. Membrane pellets were then resuspended in 0.4 mL of ice-cold assay buffer A (50 mM Tris-HCl, pH 7.4, 5 mM MgCl2, 1 mM CaCl2, 0.5% bovine serum albumin (BSA) (Sigma Aldrich) containing 10% glycerol) with aliquots stored at −80 °C. The protein concentration of the membrane preparations was determined by the Bradford method.
(§3) The scintillation proximity assay (SPA) was used to study ligand binding interactions with the receptor. The basic principle of the assay involved coupling receptor membrane preparations to coated SPA beads. When a radiolabelled ligand, which is able to bind to the receptor coupled onto the SPA bead, interacts with the receptor it will be close enough in proximity to activate the SPA bead. The radiolabel emits radiation that leads to the production of a light signal by activation of the scintillant in the bead. More specifically for our studies, receptor binding studies were performed using Polyvinyltoluene (PVT) scintillation beads, which have wheat germ agglutinin (WGA) covalently attached on the surface (Perkin Elmer). These beads allow for the development of a homogeneous GPCR radioligand binding assay using cellular membranes or whole cells. Briefly, receptor SPA studies were performed in 96-well white isoplates with clear flat bottoms (Perkin Elmer). ^125I-C5a (~25 pM) (specific activity, 2,200 Ci/mmol) (Perkin Elmer) was added to either CHO-C5aR membrane preparations (~2 µg/well) or HMDM (25,000 cells/well). SPA beads (200 µg/well) were then added, followed by the addition of various concentrations of competing ligands (6 pM to 100 µM) in a total volume of 80 µL of buffer A (CHO-C5aR) or B (HMDM) (50 mM Tris-HCl, pH 7.4, 0.5% BSA, and either 5 mM MgCl2, 1 mM CaCl2 (A) or 3 mM MgCl2, 0.1 mM CaCl2 (B)). The final reaction volume per well comprised 20 µL of ligand/buffer, 20 µL of PVT WGA SPA beads, 20 µL of membrane/cells and the assay was initiated by the addition of 20 µL of ^125I-C5a. The plate was then sealed using TopSeal-A (Perkin Elmer) sealing film and incubated with shaking for 1 h at room temperature. Radioligand binding was then assessed for 30 s/well using a 1450 Microbeta scintillation counter (Perkin Elmer). All binding and subsequent assay data, unless stated otherwise, was analysed using GraphPad Prism 5.0c (GraphPAD Software Inc., San Diego, CA, USA).

[7] = target: T1, human C5aR; test: xCELLigence label-free impedance system on HMDM; assay type: cell-based; details: predominant peak ~3.5 min, 95% confidence intervals in brackets
Method: (§4) HMDM were seeded at 30,000 cells/well, CHO-C5aR at 5,000 cells/well and CHO-K1 at 7,500 cells/well and incubated overnight in 384-well E-Plates (Roche). Ligand preparation and cell treatment was as described for the EPIC® protocol above. However, during the buffer exchange equilibration steps, cells were kept in the incubator at 37 °C with 5% CO2. HMDM were media exchanged with serum-free IMDM and incubated for 2 h prior to ligand addition with recordings at 37 °C. Ligands for the HMDM experiments were prepared in serum-free media. To ensure consistency with the EPIC® data, time point for data analysis was determined by a number of different factors, mainly maximum response of predominant peak (Figure 2), but point at which the EC50 was stable over this time according to the RTCA software was also used to confirm the time point

[8] = target: T1, human C5aR; test: xCELLigence label-free impedance system on CHO-C5aR cells; assay type: cell-based; details: predominant peak ~3.5 min, 95% confidence intervals in brackets
Method: as §4

[9] = target: T1, human C5aR; test: 125I-C5a competitive receptor binding (SPA) on HMDM; details: for IC50: 25 pM 125I-C5a, 95% confidence intervals in brackets
From the text: as §3

[10] = system: C5aR; details: different cell types and assay platforms; cited from earlier work

| Molecule | ERK response relative to the native ligand C5a (efficacy) [1] | ERK response relative to the native ligand C5a (efficacy) [2] | EC50 [3] | EC50 [4] | Functional character in myeloperoxidase release [5] | IC50 [6] | EC50 [7] | EC50 [8] | EC50 [1] | ERK EC50 relative to that of C5a [2] | EC50 [2] | IC50 [9] | Difference in binding IC50 relative to C5a ([6]; CHO-C5aR) | Reduction in potency compared to C5a [10] | Difference in binding IC50 relative to C5a [9] |
| --- | --- | --- | --- | --- | --- | --- | --- | --- | --- | --- | --- | --- | --- | --- | --- |
| CN[C@@H](Cc1ccccc1)C(=O)N[C@@H](CCCCN)C(=O)N1CCC[C@H]1C(=O)N[C@H](CC1CCCCC1)C(=O)N[C@H](Cc1cccc2ccccc12)C(=O)N[C@H](CCCNC(=N)N)C(=O)O [Peptide partial agonist, NMePhe-Lys-Pro-dCha-dNal-dArg-COOH] (H-[NMeF]KP[dCha][d1Nal][dR]-OH) | approximately half of the response relative to C5a | approximately half of the response relative to C5a | – | – | – | – | – | – | – | – | – | – | – | – | – |
| CN[C@@H](Cc1ccccc1)C(=O)N[C@@H](CCCCN)C(=O)N1CCC[C@H]1C(=O)N[C@H](CC1CCCCC1)C(=O)N[C@H](CC1CCCCC1)C(=O)N[C@H](CCCNC(=N)N)C(=O)O [Peptide agonist, NMePhe-Lys-Pro-dCha-dCha-dArg-COOH] (H-[NMeF]KP[dCha][dCha][dR]-OH) | characteristics of a partial agonist; also recorded: partial agonist activity | potentiation of the response relative to the native ligand | 347 nM | 563 nM | full agonist | 47 nM | 546 nM | 351 nM | 120 nM | ~ 30 fold | 5 nM | 132 nM | – | – | – |
| C5a des-Arg | – | – | – | – | – | – | – | – | – | – | – | – | ~ 6 fold | 10–1,000 fold | ~ 2 fold |
| C5a des-Arg (protein, glycosylated (N-glycan at Asn64 of C5a, Asn741 of precursor, by convention); three intrachain disulfides, C5a minus its C-terminal arginine, purchased from Merck) TLQKKIEEIAAKYKHSVVKKCCYDGACVNNDETCEQRAARISLGPRCIKAFTECCVVASQLRANISHKDMQLG | – | – | 11 nM | 47 nM | – | 1.2 nM and 1.23 nM | 20 nM | 44 nM | 0.55 nM | – | 2 nM | 2.5 nM | – | – | – |
| C5a: endogenous 74 residue protein ligand of human C5aR, purchased from Sigma Aldrich and Sino Biological Inc (protein, UniProt P01031 678-751, looked up, C5a anaphylatoxin, endogenous 74 residue protein ligand of human C5aR, purchased from Sigma Aldrich and Sino Biological Inc) C5a anaphylatoxin: TLQKKIEEIAAKYKHSVVKKCCYDGACVNNDETCEQRAARISLGPRCIKAFTECCVVASQLRANISHKDMQLGR | – | – | 24 nM | 107 nM | – | 0.2 nM | 89 nM | 16 nM | 0.47 nM | – | 0.15 nM | 1.2 nM | – | – | – |
